Data as given in ChEMBL document CHEMBL5036306 (J Med Chem, 2021).
Calls of active or inactive are those of the source. The calls are words filed in the database; no cut-off is given here.

Key:
[1] = Antioxidant activity of compound assessed as trolox equivalent of AAPH radical scavenging activity at 2 to 4 uM preincubated for 15 mins followed by AAPH addition and measured every 2 mins for 90 mins by ORAC-fluorescein assay; type: functional; details: dose 2-4 µM, time 105.0 min
Histone deacetylase 4 = Histone deacetylase 4 (Homo sapiens, UniProt P56524); assay: Inhibition of recombinant HDAC4 (unknown origin) using Boc-Lys(trifluoroacetyl)-AMC as substrate pre-incubated for 1 hr followed by substrate addition and measured after 2 hrs by fluorescence based assay
[2] = Neurotoxicity in mouse HT-22 cells assessed as cell survival at 10 uM incubated for 48 hrs by MTT assay; type: cell-based; details: ht-22, 48 h, 10 µM
[3] = target: T1, Protein deacetylase HDAC6 (Homo sapiens, UniProt Q9UBN7); assay: Inhibition of recombinant HDAC6 (unknown origin) using Boc-Lys(acetyl)-AMC as substrate preincubated for 1 hr followed by substrate addition and measured after 2 hrs by fluorescence based assay
T1 sequence (Q9UBN7 whole entry): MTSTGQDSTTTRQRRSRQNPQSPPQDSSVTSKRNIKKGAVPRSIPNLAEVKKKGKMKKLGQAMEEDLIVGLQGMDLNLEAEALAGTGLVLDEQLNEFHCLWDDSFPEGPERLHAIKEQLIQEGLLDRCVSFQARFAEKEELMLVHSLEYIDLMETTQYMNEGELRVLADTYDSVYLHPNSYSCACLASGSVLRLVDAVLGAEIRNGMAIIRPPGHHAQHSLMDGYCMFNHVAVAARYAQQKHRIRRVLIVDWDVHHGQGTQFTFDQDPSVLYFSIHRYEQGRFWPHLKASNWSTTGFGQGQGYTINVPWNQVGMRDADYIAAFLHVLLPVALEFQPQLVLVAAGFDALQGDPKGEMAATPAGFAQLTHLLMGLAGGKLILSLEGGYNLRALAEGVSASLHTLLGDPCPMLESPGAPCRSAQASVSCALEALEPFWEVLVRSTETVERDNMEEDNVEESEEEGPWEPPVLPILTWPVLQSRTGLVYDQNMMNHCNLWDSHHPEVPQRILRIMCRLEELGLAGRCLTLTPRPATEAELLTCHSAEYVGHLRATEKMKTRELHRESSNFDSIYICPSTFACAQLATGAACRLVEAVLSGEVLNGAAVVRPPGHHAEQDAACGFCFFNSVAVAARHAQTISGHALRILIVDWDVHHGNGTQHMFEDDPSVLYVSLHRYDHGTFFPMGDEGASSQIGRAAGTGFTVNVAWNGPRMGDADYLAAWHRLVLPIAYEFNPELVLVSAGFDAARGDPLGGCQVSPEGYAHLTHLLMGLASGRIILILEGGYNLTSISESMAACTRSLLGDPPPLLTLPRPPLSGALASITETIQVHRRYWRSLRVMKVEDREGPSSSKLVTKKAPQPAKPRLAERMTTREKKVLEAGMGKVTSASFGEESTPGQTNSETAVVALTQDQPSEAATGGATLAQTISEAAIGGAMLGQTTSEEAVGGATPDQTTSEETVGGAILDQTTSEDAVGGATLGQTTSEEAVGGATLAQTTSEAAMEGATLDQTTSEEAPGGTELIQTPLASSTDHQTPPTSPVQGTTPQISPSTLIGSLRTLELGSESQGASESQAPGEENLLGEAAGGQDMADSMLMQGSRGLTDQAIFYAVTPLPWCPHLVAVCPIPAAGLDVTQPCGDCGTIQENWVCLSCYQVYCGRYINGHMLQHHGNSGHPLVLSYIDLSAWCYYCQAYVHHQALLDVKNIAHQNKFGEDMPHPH

Histone deacetylase 3 = Histone deacetylase 3 (Homo sapiens, UniProt O15379); assay: Inhibition of recombinant HDAC3 (unknown origin) using Boc-Lys(acetyl)-AMC as substrate preincubated for 1 hr followed by substrate addition and measured after 2 hrs by fluorescence based assay
Homo sapiens [4] = organism: Homo sapiens; assay: Selectivity ratio of IC50 for recombinant HDAC8 (unknown origin) to IC50 for recombinant HDAC6 (unknown origin)
N9 = assay: Immunomodulatory activity in mouse N9 microglial cells assessed as reduction in LPS-induced nitrite accumulation incubated for 24 hrs by Griess reagent based analysis; type: functional, cell-based; details: dose 0.1-5 µM
[5] = Metal chelating activity assessed as Fe2+ -ferrozoine complex formation at 10 to 200 uM preincubated for 2 mins followed by ferrozine addition and further incubated for 10 mins by microplate reader based assay; details: dose 10-200 µM, time 12.0 min
Homo sapiens [6] = organism: Homo sapiens; assay: Selectivity ratio of IC50 for recombinant HDAC9 (unknown origin) to IC50 for recombinant HDAC6 (unknown origin)
[7] = Metal chelating activity assessed as compound-Cu2+ complex formation at 10 to 200 uM incubated for 2 mins followed by pyrocatechol violet addition and further incubated for 10 mins by microplate reader based assay; details: dose 10-200 µM, time 12.0 min
Histone deacetylase 1 = Histone deacetylase 1 (Homo sapiens, UniProt Q13547); assay: Inhibition of recombinant HDAC1 (unknown origin) using Boc-Lys(Ac)-AMC as substrate pre-incubated for 1 hr followed by substrate addition and measured after 2 hrs by fluorescence based assay
Homo sapiens [8] = organism: Homo sapiens; assay: Selectivity ratio of IC50 for recombinant HDAC2 (unknown origin) to IC50 for recombinant HDAC6 (unknown origin)
Homo sapiens [9] = organism: Homo sapiens; assay: Selectivity ratio of IC50 for recombinant HDAC3 (unknown origin) to IC50 for recombinant HDAC6 (unknown origin)
Homo sapiens [10] = organism: Homo sapiens; assay: Selectivity ratio of IC50 for recombinant HDAC7 (unknown origin) to IC50 for recombinant HDAC6 (unknown origin)
Histone deacetylase 9 = Histone deacetylase 9 (Homo sapiens, UniProt Q9UKV0); assay: Inhibition of recombinant HDAC9 (unknown origin) using Boc-Lys(trifluoroacetyl)-AMC as substrate pre-incubated for 1 hr followed by substrate addition and measured after 2 hrs by fluorescence based assay
Histone deacetylase 9, sequence (Q9UKV0 whole entry): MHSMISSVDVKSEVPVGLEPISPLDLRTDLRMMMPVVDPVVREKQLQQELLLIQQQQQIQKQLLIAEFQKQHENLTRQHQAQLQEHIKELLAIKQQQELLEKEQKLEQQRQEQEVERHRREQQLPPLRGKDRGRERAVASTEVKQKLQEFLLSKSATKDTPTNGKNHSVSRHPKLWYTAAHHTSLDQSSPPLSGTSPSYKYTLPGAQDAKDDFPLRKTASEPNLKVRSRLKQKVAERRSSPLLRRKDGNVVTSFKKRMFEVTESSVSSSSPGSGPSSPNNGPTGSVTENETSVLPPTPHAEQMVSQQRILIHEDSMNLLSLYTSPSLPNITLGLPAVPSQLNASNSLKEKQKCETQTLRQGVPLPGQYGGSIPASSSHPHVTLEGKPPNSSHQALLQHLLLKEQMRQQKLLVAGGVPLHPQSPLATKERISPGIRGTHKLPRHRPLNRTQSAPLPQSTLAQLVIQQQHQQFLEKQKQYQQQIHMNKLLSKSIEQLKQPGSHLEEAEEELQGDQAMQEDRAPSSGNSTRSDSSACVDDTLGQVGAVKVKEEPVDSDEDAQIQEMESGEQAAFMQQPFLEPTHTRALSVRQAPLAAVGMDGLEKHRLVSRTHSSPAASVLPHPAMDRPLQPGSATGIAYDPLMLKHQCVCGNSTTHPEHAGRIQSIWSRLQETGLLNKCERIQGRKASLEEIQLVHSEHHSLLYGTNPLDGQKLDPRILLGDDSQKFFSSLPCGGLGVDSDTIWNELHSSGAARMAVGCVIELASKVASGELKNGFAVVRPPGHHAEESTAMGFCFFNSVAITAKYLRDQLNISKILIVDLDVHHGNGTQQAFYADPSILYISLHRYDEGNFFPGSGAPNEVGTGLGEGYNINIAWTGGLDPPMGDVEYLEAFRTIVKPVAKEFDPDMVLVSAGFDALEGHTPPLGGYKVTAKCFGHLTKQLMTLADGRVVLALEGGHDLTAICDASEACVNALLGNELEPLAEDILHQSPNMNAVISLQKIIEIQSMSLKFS

Histone deacetylase 4, sequence (P56524 whole entry): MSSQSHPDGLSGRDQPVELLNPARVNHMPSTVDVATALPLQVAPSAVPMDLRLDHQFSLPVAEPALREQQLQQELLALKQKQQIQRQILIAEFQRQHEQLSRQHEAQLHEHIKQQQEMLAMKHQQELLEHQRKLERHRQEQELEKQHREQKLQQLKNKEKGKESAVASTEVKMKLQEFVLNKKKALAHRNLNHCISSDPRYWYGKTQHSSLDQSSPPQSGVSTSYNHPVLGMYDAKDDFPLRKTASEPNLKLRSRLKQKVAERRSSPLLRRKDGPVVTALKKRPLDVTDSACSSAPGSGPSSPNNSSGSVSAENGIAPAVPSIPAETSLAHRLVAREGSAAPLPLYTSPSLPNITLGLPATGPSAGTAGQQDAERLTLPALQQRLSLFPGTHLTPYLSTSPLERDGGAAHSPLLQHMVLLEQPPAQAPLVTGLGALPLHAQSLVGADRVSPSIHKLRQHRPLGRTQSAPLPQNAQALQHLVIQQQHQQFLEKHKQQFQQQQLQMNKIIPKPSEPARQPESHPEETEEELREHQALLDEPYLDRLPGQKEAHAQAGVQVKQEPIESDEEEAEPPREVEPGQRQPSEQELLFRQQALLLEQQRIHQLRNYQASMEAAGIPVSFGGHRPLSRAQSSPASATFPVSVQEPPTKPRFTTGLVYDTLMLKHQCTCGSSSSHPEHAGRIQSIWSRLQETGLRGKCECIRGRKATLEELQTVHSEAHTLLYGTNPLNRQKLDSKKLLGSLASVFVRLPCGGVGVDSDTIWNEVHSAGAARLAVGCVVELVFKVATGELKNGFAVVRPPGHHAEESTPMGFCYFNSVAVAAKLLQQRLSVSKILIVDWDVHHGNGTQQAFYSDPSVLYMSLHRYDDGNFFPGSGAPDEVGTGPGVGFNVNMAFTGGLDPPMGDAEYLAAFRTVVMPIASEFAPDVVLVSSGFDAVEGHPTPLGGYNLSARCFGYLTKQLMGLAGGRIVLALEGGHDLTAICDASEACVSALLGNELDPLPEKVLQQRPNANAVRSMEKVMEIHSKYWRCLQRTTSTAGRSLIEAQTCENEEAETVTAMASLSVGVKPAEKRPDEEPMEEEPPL
Histone deacetylase 1, sequence (Q13547 whole entry): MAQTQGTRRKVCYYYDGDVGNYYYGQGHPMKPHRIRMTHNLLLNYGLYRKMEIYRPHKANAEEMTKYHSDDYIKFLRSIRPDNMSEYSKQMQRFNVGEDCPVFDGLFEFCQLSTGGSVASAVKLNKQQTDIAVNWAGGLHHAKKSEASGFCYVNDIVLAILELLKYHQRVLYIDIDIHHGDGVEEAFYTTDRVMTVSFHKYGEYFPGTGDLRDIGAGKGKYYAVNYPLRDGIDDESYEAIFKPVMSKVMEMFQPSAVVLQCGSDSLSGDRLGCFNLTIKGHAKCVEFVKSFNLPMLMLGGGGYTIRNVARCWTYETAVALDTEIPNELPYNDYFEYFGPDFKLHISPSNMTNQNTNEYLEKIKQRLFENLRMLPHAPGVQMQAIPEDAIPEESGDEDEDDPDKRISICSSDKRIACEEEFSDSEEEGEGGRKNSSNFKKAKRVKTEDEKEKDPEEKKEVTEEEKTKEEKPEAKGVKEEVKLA
Histone deacetylase 3, sequence (O15379 whole entry): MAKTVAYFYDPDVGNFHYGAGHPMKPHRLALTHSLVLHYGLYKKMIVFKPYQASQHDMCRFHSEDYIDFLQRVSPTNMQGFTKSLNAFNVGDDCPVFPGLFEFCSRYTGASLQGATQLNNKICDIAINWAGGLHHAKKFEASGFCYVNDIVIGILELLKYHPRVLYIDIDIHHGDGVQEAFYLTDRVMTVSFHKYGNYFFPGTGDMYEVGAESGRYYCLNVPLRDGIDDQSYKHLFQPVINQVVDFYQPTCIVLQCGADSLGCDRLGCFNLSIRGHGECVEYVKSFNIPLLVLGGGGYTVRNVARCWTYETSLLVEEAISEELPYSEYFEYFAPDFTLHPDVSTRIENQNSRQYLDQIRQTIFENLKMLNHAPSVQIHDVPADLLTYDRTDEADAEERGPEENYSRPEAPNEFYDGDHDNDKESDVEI

## COc1ccc2[nH]cc(CCN(Cc3ccc(C(=O)NO)cc3)C(=O)/C=C/c3ccc(O)c(OC)c3)c2c1
[1]
  ORAC antioxidant capacity (Trolox equivalents): 2.1
Histone deacetylase 4; read-out: IC50
  IC50: > 10000 nM
[2]
  Activity: Non-Toxic
[3]
  IC50: 30.7 nM
Histone deacetylase 3
  IC50: 1610 nM
Homo sapiens [4]
  Ratio IC50: 117
N9
  Activity: Dose-Dependent Effect
[5]
  Activity: Active
Homo sapiens [6]
  Ratio IC50: > 326
[7]
  Activity: Active
Histone deacetylase 1
  IC50: 771 nM
Homo sapiens [8]
  Ratio IC50: 93
Homo sapiens [9]
  Ratio IC50: 53
Homo sapiens [10]
  Ratio IC50: > 326
Histone deacetylase 9
  IC50: > 10000 nM

## COc1ccc2c(c1)c(CCNC(C)=O)cn2Cc1ccc(C(=O)NO)cc1
[1]
  ORAC antioxidant capacity (Trolox equivalents): 1.6
Histone deacetylase 4; read-out: IC50
  IC50: 3430 nM
Histone deacetylase 4; read-out: pIC50 (converted)
  IC50: 3390 nM
[2]
  Activity: Toxic
[3]
  IC50: 11.2 nM
Histone deacetylase 3
  IC50: 641 nM
Homo sapiens [4]
  Ratio IC50: 75
[5]
  Activity: Active
Homo sapiens [6]
  Ratio IC50: 32
[7]
  Activity: Active
Histone deacetylase 1
  IC50: 262 nM
Homo sapiens [8]
  Ratio IC50: 30
Homo sapiens [9]
  Ratio IC50: 57
Homo sapiens [10]
  Ratio IC50: 148
Histone deacetylase 9
  IC50: 362 nM
